{
  "source": "patent US9777010B2",
  "about": "“Substituted 4-phenylpiperidines, their preparation and use” (THE TRUSTEES OF COLUMBIA UNIVERSITY IN THE CITY OF NEW YORK, priority 2014, dated 2017)",
  "key": {"RBP4-TTR interaction": {"molecular_target": "RBP4-TTR interaction (Homo sapiens (Human), UniProt P02753)", "experiment": "TR-FRET (HTRF) assay for retinol-induced RBP4-TTR interaction", "format": "biochemical", "details": "in the presence of 1 μM retinol; read-out: HTRF assay for antagonists of RBP4-TTR interaction: IC50", "method": "Binding of a desired RBP4 antagonist displaces retinol and induces hindrance for RBP4-TTR interaction resulting in the decreased FRET signal (FIG. 7). Bacterially expressed MBP-RBP4 and untagged TTR were used in this assay. […] Following cell lysis, recombinant RBP4 was purified from the soluble fraction using the ACTA FPLC system (GE Healthcare) equipped with the 5-ml the MBP Trap HP column. Human untagged TTR was purchased from Calbiochem. […] HTRF assay was performed in white low volume 384 well plates (Greiner-Bio) in a final assay volume of 16 μl per well. The reaction buffer contained 10 mM Tris-HCl pH 7.5, 1 mM DTT, 0.05% NP-40, 0.05% Prionex, 6% glycerol, and 400 mM KF. […] Titration of test compounds in this assay was conducted in the presence of 1 μM retinol. All reactions were assembled in the dark under dim red light and incubated overnight at +4° C. wrapped in aluminum foil. TR-FRET signal was measured in the SpectraMax M5e Multimode Plate Reader (Molecular Device). […] The TR-FRET signal was expressed as the ratio of fluorescence intensity: Flu665/Flu620×10,000."}, "serum RBP4 and retinol": {"test_system": "serum RBP4 and retinol", "details": "in vivo; cited from earlier work"}},
  "data": [
    {"smiles": "COCCN1CCc2c(C(=O)N3CCC(c4cccc(F)c4C(F)(F)F)CC3)n[nH]c2C1", "note": "[Compound 77, (4-(3-Fluoro-2-(trifluoromethyl)phenyl)piperidin-1-yl)(6-(2-methoxyethyl)-4,5,6,7-tetrahydro-3aH-pyrazolo[3,4-c]pyridin-3-yl)methanone]", "values": [
      {"measurement": "IC50", "setting": "RBP4-TTR interaction", "value": 1.62, "unit": "nM"}
    ]},
    {"smiles": "CC1=C(/C=C/C(C)=C/C=C/C(C)=C/C(=O)Nc2ccc(O)cc2)C(C)(C)CCC1", "note": "[fenretinide, N-(4-hydroxy-phenyl)retinamide]", "values": [
      {"measurement": "serum RBP4 and retinol", "setting": "serum RBP4 and retinol", "value": "reduce serum RBP4 and retinol"}
    ]}
  ]
}
